“Also recorded” adds a separate entry of the source.
Tests used:
aortic rings = experiment: Arterial ring isometric tension measurements; parameters: species or system mice
Method: Arterial Ring Isometric Tension Measurements. Isometric tension in aortas was measured as previously described,^64 with minor modifications. Thoracic aortas were dissected in Krebs-Henseleit solution, cleaned of any adherent connective tissue, and cut into 1.5-2 mm segments. Rings with intact endothelium were mounted in a wire myograph over 40 μm wires, set at a resting tension of 0.5 g, and allowed to equilibrate at 37° C. for 45 min with intermittent washes every 15 min. After equilibration, aortas were treated with 40 mM K^+-solution. For vascular relaxation by acetylcholine (Sigma) or 8-(4-chlorophenylthio)cGMP (8-CPT-cGMP, BioLog), each aortic ring was pre-contracted to generate ˜0.15 g contraction by treatment with prostaglandin-F2α (PGF2α 2-8 μM, Thermo-Fisher). The degree of relaxation was calculated as a percent of PGF2α-induced contraction.

human aortic SMCs [1] = experiment: H2O2 production by Amplex Red in SMCs expressing PKG1^RQ; format: cell-based; conditions: human aortic SMCs infected with PKG1^RQ adenovirus
Method: (§1) SMC Culture and Adenovirus Infection. Murine aortic SMCs were isolated from the aortas of 8-12 week old wild type and PKG1^RQ/+ mice and were cultured in Smooth Muscle Basal Media (SmBM) containing 20% FBS, pyruvate, HEPES, L-glutamine, penicillin/streptomycin and growth factors (SmBM Bullet kit; CC-4149 from Lonza), as previously described.^69 Two independent cell isolates from wild type and PKG1^RQ mice were used at passage one. Human primary aortic SMCs were purchased from Lifeline Cell Technology (Frederick, MD, FC-0015) and cultured in VascuLife Basal Medium supplemented with recombinant epidermal growth factor, insulin, and fibroblast growth factor-b, ascorbic acid, L-glutamine, 20% FBS, gentamycin, and amphotericin (Vasculife SMC LifeFactors kit; LS-1040 from Lifeline Technologies). Human SMCs were used at passages 3-6. […]
Amplex Red and NADPH Oxidase Assays. Primary murine SMCs isolated from wild type or PKG1^RQ/+ aortas, and human SMCs infected with control, wild type, or mutant PKG1^RQ virus, were seeded at 4×10^4 cells/well in 96-well plates, and H2O2 production was measured using an Amplex Red/Hydrogen Peroxide/Peroxidase Assay Kit (Thermo Fischer Scientific). […] Fluorescence was measured every min in a BioTek Synergy 2 plate reader, using 540 nm excitation and 590 nm emission wavelengths.

human aortic SMCs [2] = experiment: DNA oxidation by 8-OH-deoxyguanosine immunofluorescence staining in SMCs; format: cell-based; conditions: human aortic SMCs expressing PKG1^RQ
Method: as §1, with “3-6. Adenovirus was generated using the ViraPower Adenoviral Expression System (Thermo Fisher).^67 Human SMCs were infected with virus expressing wild type or mutant human PKG1α (containing the R177Q mutation); the MOI was 3-10 and titrated to produce wild type and mutant kinase at 2-3 fold the level of endogenous PKG1 at 72 h post infection.” for “3-6.”
(§2) SMC Immunofluorescence Staining. […] Images were analyzed with a Keyence BZ-X700 fluorescence microscope.

human aortic SMCs [3] = experiment: SMC proliferation by BrdU uptake; format: cell-based
Method: as §1, with “3-6. Adenovirus was generated using the ViraPower Adenoviral Expression System (Thermo Fisher).^67 Human SMCs were infected with virus expressing wild type or mutant human PKG1α (containing the R177Q mutation); the MOI was 3-10 and titrated to produce wild type and mutant kinase at 2-3 fold the level of endogenous PKG1 at 72 h post infection.” for “3-6.”
as §2

human aortic SMCs [4] = experiment: SMC apoptosis by cleaved caspase-3 staining; format: cell-based; conditions: human SMCs expressing PKG1^RQ
Method: as §1, with “3-6. Adenovirus was generated using the ViraPower Adenoviral Expression System (Thermo Fisher).^67 Human SMCs were infected with virus expressing wild type or mutant human PKG1α (containing the R177Q mutation); the MOI was 3-10 and titrated to produce wild type and mutant kinase at 2-3 fold the level of endogenous PKG1 at 72 h post infection.” for “3-6.”
as §2

Prkg1^RQ/+ mice = experiment: Transverse aortic constriction (TAC) with N-acetylcysteine treatment; format: in vivo
human aortic SMCs [5] = experiment: Western blots (VASP phosphorylation, JNK activation) and OxyBlot protein oxidation in human SMCs; format: cell-based; conditions: human aortic SMCs, combined with low concentrations of an NO donor
Method: Western Blotting. Following anesthesia with ketamine (100 mg/kg) and xylazine (10 mg/kg) by intraperitoneal injection, mice were exsanguinated and perfused with ice-cold phosphate-buffered saline (PBS) containing protease inhibitor cocktail (Calbiochem #539131). Aortas were excised, cleaned from surrounding tissue, and snap-frozen in liquid nitrogen within 15 min of euthanasia. Frozen aortas were pulverized and sonicated (3×10 sec) in ice-cold RIPA buffer (50 mM NaCl, 50 mM Tris-HCl, pH 8, 1% NP-40, 0.1% SDS, 0.5% sodium deoxycholate) supplemented with 1 mM NaF, 1 mM β-glycerolphosphate, and protease inhibitor cocktail. Western blots were developed with primary antibodies specific for PKG1 (1:1000, Cell Signaling Technology; 3248, […] (1:1000, Cell Signaling Technology; 3114), GAPDH (1:1000, Cell Signaling Technology; 2118), β-actin (1:5000, Santa Cruz Biotechnology; 47778), and JNK-phospho-Thr^183/Tyr^185 (1:1000, Cell Signaling Technology; 9251). Blots were developed and visualized with enhanced chemiluminescence using LI-COR Odyssey (with ImageStudio, V5) or with film in the linear range of exposure (with densitometry scanning using ImageJ (V1.51). Protein carbonyl groups (aldehydes and ketones) were detected using the OxyBlot™ Protein Oxidation Detection Kit (Millipore EMD; S7150). Unprocessed scans of blots are provided in the Source Data file.
SMC Culture and Adenovirus Infection. Murine aortic SMCs were isolated from the aortas of 8-12 week old wild type and PKG1^RQ/+ mice and were cultured in Smooth Muscle Basal Media (SmBM) containing 20% FBS, pyruvate, HEPES, L-glutamine, penicillin/streptomycin and growth factors (SmBM Bullet kit; CC-4149 from Lonza), as previously described.^69 Two independent cell isolates from wild type and PKG1^RQ mice were used at passage one. Human primary aortic SMCs were purchased from Lifeline Cell Technology (Frederick, MD, FC-0015) and cultured in VascuLife Basal Medium supplemented with recombinant epidermal growth factor, insulin, and fibroblast growth factor-b, ascorbic acid, L-glutamine, 20% FBS, gentamycin, and amphotericin (Vasculife SMC LifeFactors kit; LS-1040 from Lifeline Technologies). Human SMCs were used at passages 3-6. Adenovirus was generated using the ViraPower Adenoviral Expression System (Thermo Fisher).^67 Human SMCs were infected with virus expressing wild type or mutant human PKG1α (containing the R177Q mutation); the MOI was 3-10 and titrated to produce wild type and mutant kinase at 2-3 fold the level of endogenous PKG1 at 72 h post infection. […] For knock-down of NOX2 and NOX4, SMCs were infected with adenovirus expressing shNOX2 or shNOX4 oligomers (downstream of the U6 promoter) at an MOI of 100; H2O2 production and NADPH oxidase activity assays were performed 48 h later (as described below).

`Nc1nc2c(nc(Sc3ccc(Cl)cc3)n2[C@@H]2O[C@@H]3COP(=O)(O)O[C@H]3[C@H]2O)c(=O)[nH]1` [8-CPT-cGMP, 8-(4-chlorophenylthio)cGMP] was tested. Which “relaxation of pre-contracted aortic rings in response to the agent” value (aortic rings; Prkg1^RQ/+ versus wild type aortas, rings pre-contracted with PGF2α) did it give?
Its value is “reduced in the mutant mice compared to wild type mice”.

Which results are given for `CN(C)c1cccc(-c2c3c(=O)n(-c4ccccc4Cl)[nH]c3cc(=O)n2C)c1` [GKT137831]?
H2O2 production in PKG1^RQ-expressing cells (human aortic SMCs [1]): reduced H2O2 production in the PKG1^RQ-expressing cells to a level found in control cells; PKG1^RQ-induced increase in DNA oxidation (pro-oxidant effect of PKG1^RQ) (human aortic SMCs [2]): blocked; growth-inhibitory effect of PKG1^RQ (SMC proliferation) (human aortic SMCs [3]; human SMCs expressing PKG1^RQ, growth factor-induced proliferation): partly prevented; pro-apoptotic effect of PKG1^RQ (SMC apoptosis) (human aortic SMCs [4]): partly prevented

What does the source list for `CC(=O)N[C@@H](CS)C(=O)O` [NAC, N-acetylcysteine]?
aortic pressure gradients after TAC surgery (Prkg1^RQ/+ mice; NAC-treated mice): did not affect; pre-stenotic aortic dilation after TAC (Prkg1^RQ/+ mice; NAC-treated mice): did not affect; survival after TAC compared to untreated mice (Prkg1^RQ/+ mice; NAC-treated mutant mice, 14 d after TAC): trend towards improved survival; also recorded: its effect on mortality was limited; TAC-induced aortic pathological changes, including media thinning (Prkg1^RQ/+ mice; Prkg1^RQ/+ mice, 1 mg/ml NAC in drinking water four weeks prior to and two weeks after TAC): largely prevented; also recorded: effective in ameliorating aortic wall injury after TAC; oxidative stress after TAC (Prkg1^RQ/+ mice; Prkg1^RQ/+ mice, NAC four weeks prior to and two weeks after TAC): reduced oxidative stress; effect in wild type mice after TAC (Prkg1^RQ/+ mice; wild type mice, NAC four weeks prior to and two weeks after TAC): no obvious effect

How did the SMC proliferation (human aortic SMCs [3]; human aortic SMCs, drug combination of sildenafil and NO donor) turn out when `CCCc1nn(C)c2c(=O)[nH]c(-c3cc(S(=O)(=O)N4CCN(C)CC4)ccc3OCC)nc12` [sildenafil, reference compound] was run?
Its SMC proliferation is “inhibited SMC proliferation”.

And the JNK activation (human aortic SMCs [5])?
Its JNK activation is “induced JNK activation”.

And the VASP phosphorylation (human aortic SMCs [5])?
The VASP phosphorylation was “increased VASP phosphorylation”.

Which “concentration required to pre-contract aortic rings, mutant mice” value (aortic rings; eight month-old Prkg1^RQ/+ mice, n=5 vessels) does the source give for prostaglandin F2α here?
The value was 2.27 ± 0.86 µM.

And the “concentration required to pre-contract aortic rings, wild type mice” value (aortic rings; eight month-old wild type mice, n=5 vessels)?
The value was 2.15 ± 0.17 µM.

— US12409181B2, “Treatment for aortic aneurysms” (THE REGENTS OF THE UNIVERSITY OF CALIFORNIA, priority 2019, dated 2025)
